Reference: patent US20240251792A1, “WEED CONTROL METHOD” (SYNGENTA CROP PROTECTION AG, priority 2021, published 2024)
Where two headings read alike, the source gives them in different places.

Key:
Type in all cases: in vivo
ABUTH = experiment: Pre-emergence biological efficacy (Table 3); conditions: Abutilon theophrasti, 312 h, after 13 days, read-out: evaluation (100=total damage to plant; 0=no damage to plant)
Method: (§1) Seeds of weeds and/or crops were sown in standard soil in pots. After cultivation for one day under controlled conditions in a glasshouse (at 24/19° C., day/night; 16 hours light), the plants were sprayed with an aqueous spray solution derived from the formulation of the technical active ingredient in a small amount of acetone and a special solvent and emulsifier mixture referred to as AMA (11.12% Emulsogen EL360 TM+44.44% N-methylpyrrolidone+44.44% Dowanol DPM glycol ether), to create a 50 g/l solution which was then diluted using 0.2% Genapol X080 as diluent to give the desired final dose of test compound.
(§2) The test plants were then grown under controlled conditions in the glasshouse (at 24/18° C., day/night; 15 hours light; 50% humidity) and watered twice daily. After 13 days the test was evaluated (100=total damage to plant; 0=no damage to plant).

AMARE = experiment: Pre-emergence biological efficacy (Table 3); conditions: Amaranthus retroflexus, 312 h, 1000 g/ha, after 13 days, read-out: evaluation (100=total damage to plant; 0=no damage to plant)
Method: as §1, §2

IPOHE = experiment: Pre-emergence biological efficacy (Table 3); conditions: Ipomoea hederacea, 312 h, 1000 g/ha, after 13 days, read-out: evaluation (100=total damage to plant; 0=no damage to plant)
Method: as §1, §2

STEME = experiment: Pre-emergence biological efficacy (Table 3); conditions: 312 h, after 13 days, read-out: evaluation (100=total damage to plant; 0=no damage to plant)
Method: as §1, §2

ZEAMX = experiment: Pre-emergence biological efficacy (Table 3); conditions: 312 h, 1000 g/ha, after 13 days, read-out: evaluation (100=total damage to plant; 0=no damage to plant)
Method: as §1, §2

weeds and/or crops = experiment: Post-emergence biological efficacy (Table 4); conditions: 312 h, 1000 g/ha, evaluated after 13 days
Method: as §1, with “14 days” for “one day”, “F50” for “AMA”
as §2

ECHCG = experiment: Pre-emergence biological efficacy (Table 3); conditions: Echinochloa crus-galli, 312 h, 1000 g/ha, after 13 days, read-out: evaluation (100=total damage to plant; 0=no damage to plant)
Method: as §1, §2

[1] = STEME, read-out: damage to plant STEME (100=total damage; 0=no damage)
[2] = ZEAMX, read-out: damage to plant ZEAMX (100=total damage; 0=no damage)
[3] = Amaranthus retroflexus, AMARE, read-out: damage to plant AMARE (100=total damage; 0=no damage)
[4] = Echinochloa crus-galli, ECHCG, read-out: damage to plant ECHCG (100=total damage; 0=no damage)
[5] = Ipomoea hederacea, IPOHE, read-out: damage to plant IPOHE (100=total damage; 0=no damage)
[6] = Abutilon theophrasti, ABUTH, read-out: damage to plant ABUTH (100=total damage; 0=no damage)

Structure (SMILES) | pest or weed control at 1000 g/ha (ABUTH) [%] | pest or weed control at 1000 g/ha (AMARE) [%] | pest or weed control at 1000 g/ha (IPOHE) [%] | pest or weed control at 1000 g/ha (STEME) [%] | plant injury at 1000 g/ha (ZEAMX) [%] | pest or weed control at 1000 g/ha (weeds and/or crops; [1]) [%] | pest or weed control at 1000 g/ha (weeds and/or crops; [2]) [%] | pest or weed control at 1000 g/ha (weeds and/or crops; [3]) [%] | pest or weed control at 1000 g/ha (weeds and/or crops; [4]) [%] | pest or weed control at 1000 g/ha (weeds and/or crops; [5]) [%] | pest or weed control at 1000 g/ha (weeds and/or crops; [6]) [%] | pest or weed control at 1000 g/ha (ECHCG) [%]
O=C(O)C(F)(F)c1cccc(O)c1 [Compound 1-5, 2,2-Difluoro-2-(3-hydroxyphenyl)acetic acid] | 10 | 10 | 20 | 20 | 10 | 20 | 10 | 20 | 10 | 20 |  | 
O=C(O)C(F)(F)c1cc(O)ccc1Cl [Compound 1-61, 2-(2-Chloro-5-hydroxyphenyl)-2,2-difluoroacetic acid] | 0 | 20 | 0 | 0 | 0 | 10 | 10 | 10 |  | 20 | 10 | 
O=C(O)C(F)(F)c1cc(-c2ccc(F)cc2)ccc1Cl [Compound 1-64, 2-(4-Chloro-4′-fluoro-[1,1′-biphenyl]-3-yl)-2,2-difluoroacetic acid] | 0 | 0 | 10 | 0 | 10 | 0 | 40 | 50 |  | 50 | 0 | 
O=C(O)C(F)(F)c1c(Cl)cccc1[N+](=O)[O-] [Compound 1-67, 2-(2-Chloro-6-nitrophenyl)-2,2-difluoroacetic acid] | 0 | 0 | 30 | 0 | 10 | 10 | 10 | 30 |  | 60 | 10 | 
O=C(O)C(F)(F)c1cc(-c2ccc(F)cc2)cc(Cl)c1Cl [Compound 1-78, 2-(4,5-Dichloro-4′-fluoro-[1,1′-biphenyl]-3-yl)-2,2-difluoroacetic acid] |  | 0 | 0 | 0 | 0 | 0 | 30 | 50 |  | 40 | 10 | 
COc1c(Cl)cc(Cl)c(Cl)c1C(F)(F)C(=O)O [Compound 1-82, 2,2-Difluoro-2-(2,3,5-trichloro-6-methoxy-phenyl)acetic acid] |  | 60 | 20 | 30 | 0 | 10 | 20 | 60 |  | 30 | 20 | 
Nc1c(Cl)cc(Cl)cc1C(F)(F)C(=O)O [Compound 7-253, Ammonium 2-(2-amino-3,5-dichloro-phenyl)-2,2-difluoro-acetate] | 0 | 0 | 0 |  |  | 60 | 10 | 60 | 0 | 70 | 40 | 0
